From patent US20050175580A1, “Compositions and methods for enhancing cytokine activity and treating hypotension associated with the administration of cytokines” (priority 2001, published 2005)
“Also recorded” adds a separate entry of the source.

Columns and labels:
[1] = test system: Meth A tumor; experiment: NO-mediated apoptosis of Meth A tumor (not shown); type: cell-based, mouse
[2] = test system: Meth A tumor; experiment: Meth A fibrosarcoma tumor model (malignant ascites), survival; type: in vivo, BALB/c mice
Description: Meth A was induced in a BALB/c mouse by methylcholanthrene treatment (obtained from Lloyd Old, MSKCC). This very aggressive fibrosarcoma is one of the rare tumors resistant to LAK cell mediated cytolysis in vitro. […] See Yim et al., J. Immunol. 155: 4382-4390 (1995).
Survival of the mice was used as the major endpoint to assess therapeutic responses.

[3] = test system: mice; experiment: IL-2 dose escalation study with or without M40403 (deaths, blood pressure); type: in vivo
Protocol: Analysis was performed using Chart 3.6.1 software (AD instruments).

[4] = test system: RD-995 tumor; experiment: Rosenberg tumor model, RD-995 pulmonary metastases; type: in vivo, mice
Protocol: RD-995 is a skin fibrosarcoma that was induced by chronic ultraviolet light exposure of a C3H/HeN mouse (Samlowski et al., 1995). This tumor grows in non-immunosuppressed mice, and is thus termed a “progressor” tumor.
Once stabilized, mice were injected with 10^6 RD-995 tumor cells intravenously. […] On day 14, mice were sacrificed by anesthetic overdose. After anterior thoracotomy, India ink solution (30 ml India ink, 4 drops ammonium hydroxide in 170 ml distilled water) was instilled into the trachea of each mouse via 18 ga. needle, until the lungs were completely expanded. Lungs were then excised and bleached in 5-10 ml Fekete's solution (100 ml 70% ethanol, 10 ml formaldehyde, 5 ml glacial acetic acid) for at least 24 h prior to enumeration of metastases using a magnifying lens.

[5] = test system: LAK cells; experiment: LAK cell induction in vivo, 51Cr release of lymph node and spleen cells against RD-995 tumor; set-up: species or system mice
Protocol: Parallel groups of untreated mice or mice receiving M40403 alone (at the highest dose tested of 3 mg/kg) served as a control. […] A single cell suspension was prepared from the lymph nodes and spleen from each animal, and serial dilutions made (starting from 10^6). Cytolytic activity of lymph node and spleen cells was tested against ^51Cr-radiolabeled RD-995 tumor (NK resistant, LAK sensitive, 10^4 cells) in a standard 4h ^51Cr release assay at a varying effector to target cell ratio (in triplicate). […] Statistical comparison of specific cytotoxicity (e.g. at 100:1 effector to target ratio) and lytic units per organ will be performed using Student's t-test, using Bonferroni's correction for multiple analyses.

[6] = test system: mice; experiment: IL-2 induced hypotension in mice, systolic blood pressure via tail cuff; type: in vivo
Protocol: Parallel groups of untreated mice or mice receiving M40403 alone (at the highest dose tested of 3 mg/kg) served as a control. […] Analysis was performed using Chart 3.6.1 software (AD instruments).
Preliminary experiments were also performed with M40401.

[7] = test system: NO; experiment: Inhibition of NO (not shown)
[8] = test system: murine (mouse) LAK cell; experiment: LAK cell induction in vitro, murine splenocytes activated with IL-2, cytotoxicity against RD-995 tumor, trypan blue viability; type: cell-based
Protocol: Non-M40403 exposed cultures served as a positive control. After 72 h, LAK cells were harvested and cell viability evaluated. LAK cells cytotoxicity was tested against RD-995 tumor in triplicate samples at varying effector to target cell ratios (expressed as mean±SD) using previously published methods (Yim et al., 1994; Samlowski et al., 1998).
Cell viability was assessed by trypan blue exclusion. Viability remained at 100% of control at up to 10 μM M40403 (not shown).

[9] = M40403 3 mg/kg i.p. b.i.d. in conjunction with IL-2 180,000 IU for 5 days
[10] = M40403 at highest dose, 3 mg/kg b.i.d. for 5 days

SMILES: [Cl-].[Cl-].[Mn+2].c1cc2nc(c1)CN[C@@H]1CCCC[C@H]1NCCN[C@@H]1CCCC[C@H]1NC2 [M40403]
- effect on NO-mediated apoptosis of Meth A tumor [1]: does not affect
- IL-2 induced anti-tumor responses, combination of IL-2 with M40403 ([2]; IL-2 180,000 IU s.c. with M40403 3 mg/kg s.c.): improves IL-2 induced anti-tumor responses
- effect on survival ([2]; M40403 itself, 3 mg/kg s.c.): did not affect survival
- blood pressure under escalating doses of IL-2 ([3]; M40403 3 mg/kg i.p. b.i.d. in conjunction with IL-2): allowed BP to be maintained
- deaths ([3]; M40403 3 mg/kg i.p. b.i.d. in conjunction with IL-2, all doses of IL-2 (180,000-400,000 IU)): 0 deaths of 6 mice
- effect on the anti-tumor effects of IL-2 ([4]; M40403 3 mg/kg concurrently with IL-2): did not affect the anti-tumor effects of IL-2
- number of tumor nodules in lungs ([4]; single agent, IL-2 180,000 IU i.p. every 12 h for 5 days or M40403 3 mg/kg, day 14): completely eliminated
- IL-2 induced LAK cells activation in vivo, lymph nodes [5, 9]: significantly potentiated
- IL-2 induced LAK cells activation in vivo, spleen [5, 9]: significantly potentiated
- LAK cell induction in vivo ([5]; M40403 by itself, 3 mg/kg): did not increase
- effect on systolic blood pressure [6, 10]: no effect on systolic blood pressure
- signs of toxicity [6, 10]: no apparent signs of toxicity
- reversal / attenuation of IL-2 induced hypotension ([6]; SOD mimetic i.p. b.i.d. in conjunction with IL-2 180,000 IU for 5 days): attenuated in a dose-dependent manner
- dose at which maximal / full reversal of IL-2 induced hypotension was obtained ([6]; b.i.d. with IL-2 for 5 days): 3 mg/kg
- Mean Systolic BP ([6]; mice, n=6 per group, IL-2 180,000 IU i.p. twice daily for 5 days, M40403 alone at 3 mg/kg, tail cuff two hours after last dose of IL-2): 111.21
- systolic BP, mean ([6]; mice, n=6 per group, IL-2 180,000 IU i.p. twice daily for 5 days, M40403 alone at 3 mg/kg, two hours after last dose of IL-2): 111±45 mmHg
- inhibition of NO [7]: does not inhibit
- effect on murine LAK cell activation by IL-2 ([8]; M40403 0-10 μM during IL-2 activation (6000 IU/ml rhIL-2), 72 h): did not adversely affect; also recorded: do not adversely affect
- dose dependence of LAK cell activation ([8]; increasing concentrations of M40403 during IL-2 activation): dose-dependent increase
- cell viability ([8]; up to 10 μM M40403, trypan blue exclusion): 100 % of control
